Results as given in US20200108008A1, “OLAPARIB ORAL SUSTAINED AND CONTROLLED RELEASE PHARMACEUTICAL COMPOSITION AND USES THEREOF” (SHANGHAI INSTITUTE OF MATERIA MEDICA, CHINESE ACADEMY OF …, priority 2016, published 2020).

Experiment: Dissolution of olaparib solid dispersion versus olaparib compound powder in water under sink conditions
Type: physicochemical
Details: 37° C., 100 rpm
Protocol: A solid dispersion was prepared from Olaparib and copolyvidone VA64 by solvent evaporation. That is, olaparib and copolyvidone VA64 were simultaneously dissolved in ethanol/acetone (25/75, v/v), evaporated off the organic solvent under reduced pressure, dried in a vacuum drying oven, and ground and pulverized through a 60 mesh screen to be ready for tableting. For the obtained solid dispersion, in water under sink conditions at 37° C. and 100 rpm, the pharmaceutically active ingredient was dissolved out 90% or more in 30 min. However, under the same conditions, the olaparib compound powder was dissolved out less than 60% in 2h.

SMILES: O=C(c1cc(Cc2n[nH]c(=O)c3ccccc23)ccc1F)N1CCN(C(=O)C2CC2)CC1 [olaparib compound powder, 1-(cyclopropylcarboxyl)-4-[5-[(3,4-dihydro-4-oxo-1-phthalazinyl)methyl]-2-fluorobenzoyl]piperazine]
- dissolved out in 2h: less than 60%
